Laboratory results as given in US6815546B2, “Analogues of camptothecin, their use as medicaments and the pharmaceutical compositions containing them” (Societe de Recherches et d'Applications Scientifiques …, priority 1995, dated 2004).

Legend:
[1] = test system: Adenocarcinoma HT29 cells from the human colon; assay: Adenocarcinoma HT29 cell proliferation, WST1 (compounds in DMA); type: cell-based; conditions: final DMA 0.1% (v/v)
Procedure: c. Adenocarcinoma HT29 cells from the human colon are cultured in a single layer at 37° in a humidified atmosphere containing 95% of air and 5% of CO2, in a modified essential Earle's medium at 4.5 g/l (Gibco, Paisley, United Kingdom); completed with 10% of inactivated foetal calf serum, 2 mM of glutamine, and 50 μg/ml of gentamycin (Gibco, Paisley, United Kingdom).
Approximately 2000 cells are seeded with the culture medium above in the wells of a microplate (96 wells, flat-bottomed) and incubated for 24 hours. Solutions in N,N-dimethyl-acetamide (DMA) of each of the examples of the invention, diluted in the culture medium so that the final concentration of DMA is 0.1% (v/v), are added to the plate cultures in order to obtain final concentration ranges from 1×10^−13 to 1×10^−5 M, and the cells are incubated for 72 hours.
The WST1 staining reagent, (Boehringer Mannheim, Germany) is then added to each well at a final concentration of 9%, and the cells are incubated for 2 hours at 37° C. This stage allows the mitochondrial deshydrogenase of the living cells to convert WST1 orange tetrazolium salt into crimson formazan. The resulting stained solutions are quantified by dual-beam detection ([…]) using a multi-cuvette scanning spectrophotometer.
The results shown in the following table III C) are expressed in terms of inhibitory concentration at 50% (IC50, in nM), accompanied by a confidence interval.

[2] = target: T1, DNA topoisomerase 1 of purified calf thymus (Bos taurus, UniProt F1MN93); assay: Relaxation activity test of DNA induced by topoisomerase 1; type: biochemical; conditions: supercoiled pUC19, 15 minutes at 37° C.
T1 construct: DNA topoisomerase 1 of purified calf thymus (Gibco-BRL, Paisley, United Kingdom); purchased Gibco-BRL, Paisley, United Kingdom; host or cells: calf thymus tissue
T1 sequence (F1MN93 1-767): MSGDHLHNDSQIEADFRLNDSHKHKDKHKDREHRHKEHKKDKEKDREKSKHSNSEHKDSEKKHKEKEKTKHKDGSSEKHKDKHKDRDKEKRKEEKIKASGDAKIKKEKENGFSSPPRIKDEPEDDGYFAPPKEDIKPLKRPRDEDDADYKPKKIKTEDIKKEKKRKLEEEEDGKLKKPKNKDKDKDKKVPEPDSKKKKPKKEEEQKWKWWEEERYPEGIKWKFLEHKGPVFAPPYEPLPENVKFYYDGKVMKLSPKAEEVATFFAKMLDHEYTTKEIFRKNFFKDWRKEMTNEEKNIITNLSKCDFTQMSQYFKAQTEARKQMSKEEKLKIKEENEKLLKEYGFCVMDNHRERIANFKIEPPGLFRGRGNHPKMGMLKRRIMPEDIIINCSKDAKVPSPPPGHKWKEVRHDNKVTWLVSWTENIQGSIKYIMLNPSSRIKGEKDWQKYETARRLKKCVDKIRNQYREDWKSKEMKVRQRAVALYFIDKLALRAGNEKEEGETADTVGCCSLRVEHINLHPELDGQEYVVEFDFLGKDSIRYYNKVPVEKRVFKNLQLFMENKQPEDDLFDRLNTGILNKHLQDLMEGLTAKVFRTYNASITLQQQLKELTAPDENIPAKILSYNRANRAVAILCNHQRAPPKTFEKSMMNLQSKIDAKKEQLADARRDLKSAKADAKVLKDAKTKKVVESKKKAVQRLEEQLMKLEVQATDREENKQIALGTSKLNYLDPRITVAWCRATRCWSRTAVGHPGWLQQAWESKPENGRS
Procedure: 1. Relaxation Activity Test of DNA Induced by Topoisomerase 1
All the reactions are carried out in a 20 μl reaction buffer constituted by 50 mM of Tris-HCl (pH 7.5), 50 mM of KCl, 0.5 mM of dithiothreitol, 10 mM of MgCl2, 0.1 mM of ethyldiamine tetraacetic acid (EDTA), 30 μg/ml of bovine serum albumin and 300 ng of supercoiled pUC19 (Pharmacia Biotech, Orsay, France) with or without the compounds to be tested at defined concentrations. All the compounds to be tested are initially dissolved in dimethylsulphoxide (DMSO) at 50 mM, the other dilutions being carried out with distilled water. […] The reaction is initiated by the addition of a unit of DNA topoisomerase 1 of purified calf thymus (Gibco-BRL, Paisley, United Kingdom) and is carried out for 15 minutes at 37° C. The reactions are stopped by the addition of 3 μl of a mixture containing 1% dodecyl sodium sulphate at 1%, 20 mM of EDTA and 500 μg/ml of K proteinase (Boehringer Mannheim, Meylan, France). After an additional incubation period of 30 minutes at 37° C., 2 μl of a loading buffer containing 10 mM of Na2HPO4, 0.3% of bromophenol blue et 16% Ficoll are added to samples which are subjected to electrophoresis in agarose gels at 1.2% at 1 V/cm for 20 hours in a buffer containing 36 mM of Tris-HCl at pH 7.8, 30 mM of Na2HPO4, 1 mM of EDTA and 2 μg/ml of chloroquine. The gels are stained with 2 μg/ml of ethidium bromide, photographed under UV light at 312 nm with a camera and the fluorescent intensity is measured with a bioProfil camera (Vilber Lournat, Lyon, France) with a view to determining the percentage of relaxed DNA. Each experiment is carried out at least three times in duplicate.
In each experiment, the supercoiled plasmid DNA is incubated alone or with topoisomerase 1. The reaction is completed within 15 minutes. For each compound to be tested or control, the supercoiled plasmid DNA is incubated in the presence of 500 μM of compound to be tested with enzyme or without enzyme plus the compound to be tested, at concentrations of 10 μM, 100 μM, 200 μM and 500 μM.

**Q.** How did the IC50 ([1]; Homo sapiens, HT-29, 72 hours) turn out when CC[C@@]1(O)CC(=O)OCc2c1cc1n(c2=O)Cc2c-1nc1ccccc1c2-c1ccccc1 [Example 89, (5R)-5-ethyl-5-hydroxy-12-phenyl-4,5,13,15-tetrahydro-1H,3H-oxepino[3′,4′:6,7]indolizino[1,2-b]quinoline-3,15-dione] was run?
**A.** 13 nM

**Q.** How did the IC50 ([1]; Homo sapiens, HT-29, 72 hours) turn out when CCCc1c2c(nc3cc(F)c(F)cc13)-c1cc3c(c(=O)n1C2)COC(=O)C[C@]3(O)CC [Example 97, (5R)-5-ethyl-9,10-difluoro-5-hydroxy-12-propyl-4,5,13,15-tetrahydro-1H,3H-oxepino[3′,4′:6,7]indolizino[1,2-b]quinoline-3,15-dione] was run?
**A.** 11 nM

**Q.** CC[C@@]1(O)CC(=O)OCc2c1cc1n(c2=O)Cc2c-1nc1cc(F)ccc1c2-c1cccc(F)c1 [Example 164, (5R)-5-ethyl-9-fluoro-12-(3-fluorophenyl)-5-hydroxy-4,5,13,15-tetrahydro-1H,3H-oxepino[3′,4′:6,7]indolizino[1,2-b]quinoleine-3,15-dione] was tested. Which IC50 ([1]; 72 hours) did it give?
**A.** 2.7 nM

**Q.** CC[C@@]1(O)CC(=O)OCc2c1cc1n(c2=O)Cc2c-1nc1ccccc1c2-c1ccc(C)cc1 [Example 91, (5R)-5-ethyl-5-hydroxy-12-(4-methylphenyl)-4,5,13,15-tetrahydro-1H,3H-oxepino[3′,4′:6,7]indolizino[1,2-b]quinoline-3,15-dione] was tested. Which IC50 ([1]; Homo sapiens, HT-29, 72 hours) did it give?
**A.** 11 nM

**Q.** Which IC50 ([1]; 72 hours) does the source give for CC[C@@]1(O)CC(=O)OCc2c1cc1n(c2=O)Cc2cc3c(F)c(F)c(F)cc3nc2-1 [Example 171, (5R)-5-ethyl-9,10,11-trifluoro-5-hydroxy-4,5,13,15-tetrahydro-1H,3H-oxepino[3′,4′:6,7]indolizino[1,2-b]quinoleine-3,15-dione] here?
**A.** 8.2 nM

**Q.** CC[C@@]1(O)CC(=O)OCc2c1cc1n(c2=O)Cc2c-1nc1cc(F)ccc1c2CCc1ccccc1 [Example 140, (5R)-5-ethyl-9-fluoro-5-hydroxy-12-phenethyl-4,5,13,15-tetrahydro-1H,3H-oxepino[3′,4′:6,7]indolizino[1,2-b]quinoline-3,15-dione] was tested. Which IC50 ([1]; Homo sapiens, HT-29, 72 hours) did it give?
**A.** 3.2 nM

**Q.** CC[C@@]1(O)CC(=O)OCc2c1cc1n(c2=O)Cc2c-1nc1ccccc1c2Cl [Example 160, (5R)-12-chloro-5-ethyl-5-hydroxy-4,5,13,15-tetrahydro-1H,3H-oxepino[3′,4′:6,7]indolizino[1,2-b]quinoleine-3,15-dione] was tested. Which IC50 ([1]; 72 hours) did it give?
**A.** 5.5 nM

**Q.** How did the IC50 ([1]; Homo sapiens, HT-29, 72 hours) turn out when CCCCc1c2c(nc3cc(F)ccc13)-c1cc3c(c(=O)n1C2)COC(=O)C[C@]3(O)CC [Example 105, (5R)-12-butyl-5-ethyl-9-fluoro-5-hydroxy-4,5,13,15-tetrahydro-1H,3H-oxepino[3′,4′:6,7]indolizino[1,2-b]quinoline-3,15-dione] was run?
**A.** 9.5 nM

**Q.** What does the source list for CCN1COc2ccc3nc4c(cc3c2C1)Cn1c-4cc2c(c1=O)COC(=O)CC2(O)CC (stereo not shown) [Example 76, 2,9-diethyl-9-hydroxy-1,2,3,9,10,16-hexahydro-13H-[1,3]oxazino[5,6-f]oxepino[3′,4′:6,7]indolizino[1,2-b]quinoline-11,14-dione]?
**A.** PERCENTAGE OF RELAXED DNA ([2]; 10 μM compound): 79.7%; PERCENTAGE OF RELAXED DNA ([2]; 100 μM compound): 33.5%; PERCENTAGE OF RELAXED DNA ([2]; 200 μM compound): 23.2%

**Q.** What does the source list for CCC1(O)CC(=O)OCc2c1cc1n(c2=O)Cc2cc3c4c(ccc3nc2-1)OCN(Cc1ccccc1)C4 (stereo not shown) [Example 78, 2-benzyl-9-ethyl-9-hydroxy-1,2,3,9,10,16-hexahydro-13H-[1,3]oxazino[5,6f]oxepino[3′,4′:6,7]indolizino[1,2-b]quinoline-11,14-dione]?
**A.** PERCENTAGE OF RELAXED DNA ([2]; 10 μM compound): 56.2%; PERCENTAGE OF RELAXED DNA ([2]; 100 μM compound): 28.0%; PERCENTAGE OF RELAXED DNA ([2]; 200 μM compound): 24.2%

**Q.** How did the IC50 ([1]; 72 hours) turn out when CCCc1c2c(nc3cc(F)cc(F)c13)-c1cc3c(c(=O)n1C2)COC(=O)C[C@]3(O)CC [Example 169, (5R)-5-ethyl-9,11-difluoro-5-hydroxy-12-propyl-4,5,13,15-tetrahydro-1H,3H-oxepino[3′,4′:6,7]indolizino[1,2-b]quinoleine-3,15-dione] was run?
**A.** 2.3 nM

**Q.** For CC[C@@]1(O)CC(=O)OCc2c1cc1n(c2=O)Cc2c-1nc1ccccc1c2CC[Si](C)(C)C [Example 104, (5R)-5-ethyl-5-hydroxy-12-(2-trimethylsilylethyl)-4,5,13,15-tetrahydro-1H,3H-oxepino[3′,4′:6,7]indolizino[1,2-b]quinoline-3,15-dione], which IC50 ([1]; Homo sapiens, HT-29, 72 hours) is on record?
**A.** 8.6 nM

**Q.** How did the IC50 ([1]; 72 hours) turn out when CCOCCc1c2c(nc3cc(F)cc(F)c13)-c1cc3c(c(=O)n1C2)COC(=O)C[C@]3(O)CC [Example 170, (5R)-12-(2-ethoxyethyl)-5-ethyl-9,11-difluoro-5-hydroxy-4,5,13,15-tetrahydro-1H,3H-oxepino[3′,4′:6,7]indolizino[1,2-b]quinoleine-3,15-dione] was run?
**A.** 0.85 nM

**Q.** For CC[C@@]1(O)CC(=O)OCc2c1cc1n(c2=O)Cc2c-1nc1cc(F)ccc1c2-c1ccc(C(F)(F)F)cc1 [Example 165, (5R)-5-ethyl-9-fluoro-5-hydroxy-12-(4-trifluoromethylphenyl)-4,5,13,15-tetrahydro-1H,3H-oxepino[3′,4′:6,7]indolizino[1,2-b]quinoleine-3,15-dione], which IC50 ([1]; 72 hours) is on record?
**A.** 1.7 nM

**Q.** How did the “PERCENTAGE OF RELAXED DNA” value ([2]; 10 μM compound) turn out when CCC1(O)CC(=O)OCc2c1cc1n(c2=O)Cc2cc3c4c(c(F)cc3nc2-1)OCN(Cc1ccccc1)C4 (stereo not shown) [Example 79, 2-benzyl-9-ethyl-5-fluoro-9-hydroxy-1,2,3,9,10,16-hexahydro-13H-[1,3]oxazino[5,6f]oxepino[3′,4′:6,7]indolizino[1,2-b]quinoline-11,14-dione] was run?
**A.** 55.6%

**Q.** What about the “PERCENTAGE OF RELAXED DNA” value ([2]; 100 μM compound) of the same compound?
**A.** 38.9%

**Q.** And the “PERCENTAGE OF RELAXED DNA” value ([2]; 200 μM compound)?
**A.** 30.0%

**Q.** Which results are given for CCC1(O)CC(=O)OCc2c1cc1n(c2=O)Cc2cc3c4c(ccc3nc2-1)OCN(C)C4 (stereo not shown) [Example 77, 9-ethyl-9-hydroxy-2-methyl-1,2,3,9,10,16-hexahydro-13H-[1,3]oxazino[5,6f]oxepino[3′,4′:6,7]indolizino[1,2-b]quinoline-11,14-dione]?
**A.** PERCENTAGE OF RELAXED DNA ([2]; 10 μM compound): 86.2%; PERCENTAGE OF RELAXED DNA ([2]; 100 μM compound): 35.1%; PERCENTAGE OF RELAXED DNA ([2]; 200 μM compound): 32.1%

**Q.** CCOC(=O)CC(O)(CC)c1cc2n(c(=O)c1CO)Cc1cc3ccccc3nc1-2 (stereo not shown) [Example 2, ethyl 3-hydroxy-3-[8-(hydroxymethyl)-9-oxo-9,11-dihydroindolizino [1,2-b]quinolin-7-yl]pentanoate] was tested. Which “PERCENTAGE OF RELAXED DNA” value ([2]; 10 μM compound) did it give?
**A.** 97.9%

**Q.** And the “PERCENTAGE OF RELAXED DNA” value ([2]; 100 μM compound)?
**A.** 78.3%

**Q.** And the “PERCENTAGE OF RELAXED DNA” value ([2]; 200 μM compound)?
**A.** 73.2%

**Q.** What about the “PERCENTAGE OF RELAXED DNA” value ([2]; 500 μM compound) of the same compound?
**A.** 51.1%
